Consider one compound from patent publication US9725490B2, “ERAP1-derived peptide and use thereof” (TOKUSHIMA UNIVERSITY, priority 2011, dated 2017).

Common to all, as to type: cell-based, human
Experiment [1] concerns transcriptional activity of ERE-ERα. The experiment in a line: ERE-luciferase reporter assay in KPL-3C cells. The following applies: 10 nM E2 24 hours. As for the experimental part: KPL-3C cells temporarily transfected with an ERE-luciferase reporter vector were treated with the ERAP1-peptide in the concentrations shown in the figure. Then, immediately, the cells were stimulated with 10 nM E2 for 24 hours. TAM indicates the tamoxifen treatment. […] KPL-3C cells were treated for 24 hours with the ERAP1-peptide and/or E2. Then, the nuclear fraction was immunoprecipitated with anti-ERα antibody or an anti-PHB2 antibody.
For orientation: Reporter assays use an easily measured gene product as a stand-in for the process of interest.

The test system of a further experiment is HDAC1. The experiment is described as follows: Deacetylation (HDAC) assay of anti-PHB2 immunoprecipitate. The note with it: MCF-7, 24 hours. The procedure: FIG. 4-4 is a diagram illustrating that the ERAP1-peptide promotes nuclear translocation of PHB2. […] MCF-7 cells were treated with the ERAP1-peptide and/or 10 nM E2 for 24 hours. Then, the nuclear fraction was immunoprecipitated with anti-ERα antibody or an anti-PHB2 antibody. […] MCF-7 cells were treated with the ERAP1-peptide and/or E2 for 24 hours. Then, the cell lysate was immunoprecipitated with anti-PHB2 antibody. Subsequently, the HDAC activity in the immunoprecipitate was measured with a commercially available kit. The nuclear extract from the HeLa cells and PBS were used as a positive control (P) and as negative control (N), respectively.
HDAC assay was performed using HDAC Fluorescent Activity Assay/Drug Discovery Kit (Enzo Life Sciences, Plymouth Meeting, Pa., USA) in accordance with the instruction of the manufacturer. MCF-7 cells were treated with E2 and/or the ERAP1 peptide(s) for 24 hours in a 6-well plate. Then, the cell extract was immunoprecipitated with anti-PHB2 antibody. Furthermore, the immunoprecipitated cell extract was incubated for 30 minutes in the presence of a substrate at 30° C. After the incubation, the reaction was stopped, and the fluorescence was analyzed with a microplate fluorometer (Infinite M200, Tecan, Mannedorf, Switzerland).

Experiment [2] concerns ZR-75-1, HCC1500, BT474, YMB-1, KPL-1, HBC4. The experiment in a line: E2-dependent cell proliferation assay, other ERα/ERAP1-positive breast cancer cell lines. The following applies: 10 μM, 10 nM E2 24 hours. The procedure:
FIG. 7-2 is a diagram illustrating that ERAP1-peptide treatment suppresses ERα-dependent cell proliferation of breast cancer cell lines. […] Various ERα/ERAP1-positive breast cancer cell lines shown in the figure were treated with 10 μM of the ERAP1-peptide or the scramble peptide or 10 nM tamoxifen. Then, immediately, the cells were stimulated with 10 nM E2 for 24 hours.
Using Cell-Counting Kit-8 (CCK-8, Dojindo, Kumamoto, Japan), the cell proliferation assay was performed. The cells were harvested, and plated in 2×10^4 cells/well on a 48-well plate, and maintained at 37° C. in a humidified incubator. At the indicated time points, the cells were added with a CCK-8 solution diluted to 1:10, and incubated for 1 hour. Then, the absorbance at 450 nm was measured and the number of living cells in each well was calculated.

For experiment [3], the system named is pS2, cyclin D1, c-Myc, SP-1, E2F1, PgR. The experiment in a line: Quantitative RT-PCR of ERα target genes, KPL-3C. The note with it: 24 hours.
A further experiment concerns ERAP1 expression. The experiment is described as follows: ERAP1 expression, quantitative RT-PCR and Western, MCF-7. The following applies: 10 μM peptide, time course.
The subject of the next experiment is ZR75-1 cells. The experiment in a line: E2-independent cell proliferation, ZR-75-1. The following applies: 10 μM every 24 hours, at 96 hours. As for the experimental part: FIG. 16 is a diagram illustrating the influence of the ERAP1-peptide on proliferation of E2-independent breast cancer cells. […] Each of the cells was treated with 10 μM ERAP1-peptide for 24 hours (MCF-7), for 48 hours (KPL-3C) or for 96 hours (ZR-75-1 and T47D).
MCF-7 cells or ZR-75-1 cells were seeded in 2×10^4/well, and KPL-3C cells were seeded in 1×10^4/well on a 48-well plate, and stood in a CO2 incubator for 24 hours. Then, for MCF-7 cells, the culture medium was exchanged with DMEM/F12 culture medium containing 10% FBS (Nichirei Biosciences, Tokyo, Japan), 1% antibiotic/antimycotic solution (Invitrogen), 0.1 mM NEAA48 (invitrogen), 1 mM sodium pyruvate and 10 μg/ml insulin (Sigma, St. Louis, Mo., USA) and not containing phenol red, and the cells were further pre-cultured for 24 hours. On the other hand, for ZR-75-1 cells and KPL-3C cells, the culture media were exchanged with RPMI culture media containing 10% FBS and 1% antibiotic/antimycotic solution and not containing phenol red, and the cells were further pre-cultured for 24 hours. The supernatant was removed, and then 200 μl of the ERAP1-peptide in each concentration or tamoxifen as a positive control was added, respectively and the mixture was reacted for 24 hours. […] Then, 100 μl from each well was moved to a 96-well plate, and the absorbance at 450 nm was measured with a microplate reader.

In another experiment the test system is PHB2/REA phosphorylation. The experiment in a line: Phosphorylation of PHB2 bound to ERα, nuclear fraction. The note with it: MCF-7, 5 μM peptide, 1 μM E2 24 hours. The procedure: FIG. 22 is a diagram illustrating that phosphorylation of PHB2 serine regulates the transcriptional activity of ERα. […] MCF-7 cells and HCC1395 cells were treated with 5 μM ERAP1-peptide. Then, immediately, the cells were stimulated with 1 μM E2 for 24 hours. Then, the nuclear fraction of each cell was immunoprecipitated with anti-ERα antibody. Furthermore, with respect to the obtained sample, immunoblotting analysis was performed using the antibodies shown in the figure and the phosphorylation antibody. […] COS-7 cells temporarily transfected with PHB2 (or PHB2 mutation vectors, S39A and S39G), ERα, ERE-luciferase vector, and each plasmid of pRL-TK as an internal standard were stimulated with 1 μM E2 for 48 hours.
MCF-7 cells and HCC1395 cells were treated with 5 μM ERAP1-peptide. Then, immediately the cells were stimulated with 1 μM E2 for 24 hours. Then, the nuclear fraction was isolated from the cells of each treatment. The nuclear fraction was precleaned at 4° C. for 3 hours using Normal IgG and rec-Protein G Sepharose 4B (Zymed, San Francisco, Calif., USA), and centrifuged, and then the supernatant was incubated in the presence of an anti-ERα antibody at 4° C. for 6 hours. Then, the supernatant was added with rec-Protein G Sepharose 4B and incubated at 4° C. for 1 hour to precipitate a antigen-antibody complex. […]

SMILES strings stand for the structures.

With `CSCC[C@H](NC(=O)[C@H](CCC(N)=O)NC(=O)[C@H](CCCNC(=N)N)NC(=O)[C@H](CCCNC(=N)N)NC(=O)[C@H](CCCNC(=N)N)NC(=O)[C@H](CCCNC(=N)N)NC(=O)[C@H](CCCNC(=N)N)NC(=O)[C@H](CCCNC(=N)N)NC(=O)[C@H](CCCNC(=N)N)NC(=O)[C@H](CCCNC(=N)N)NC(=O)[C@H](CCCNC(=N)N)NC(=O)[C@H](CCCNC(=N)N)NC(=O)[C@@H](N)CCCNC(=N)N)C(=O)N[C@@H](CC(C)C)C(=O)N[C@@H](CO)C(=O)N[C@@H](CC(=O)O)C(=O)N[C@@H](CC(C)C)C(=O)N[C@H](C(=O)N[C@@H](CC(C)C)C(=O)N[C@@H](CCC(N)=O)C(=O)N[C@@H](CC(C)C)C(=O)N[C@@H](CCCNC(=N)N)C(=O)N[C@@H](CCC(N)=O)C(=O)N[C@@H](CCCNC(=N)N)C(=O)O)[C@@H](C)O` [ERAP1-peptide], the “transcriptional activity of ERE-ERα” value in experiment [1] is reported as “suppression for the transcriptional activity of ERE-ERα was recognized”. Moreover, in the experiment on HDAC1, the “activity of HDAC1” value is reported as “accelerated dose-dependently”. Also, the E2-dependent cell proliferation result in experiment [2] was “remarkable E2-dependent proliferation suppression effect in all of the cells”. In experiment [3], the “expression of ERα target genes” value was “remarkable suppression for expression of all of these genes”. Further, the “E2-dependent expression of ERAP1” value in the experiment with ERAP1 expression was “temporally suppressed”. In addition, in the experiment with ZR75-1 cells, the “cell proliferation in the absence of E2” value is on record as “significant cell proliferation suppression effect”. For the same compound, in the experiment on PHB2/REA phosphorylation, the “phosphorylation of PHB2/REA bound to ERα in the nucleus” value was “phosphorylations of the tyrosine and serine residues in the binding-recognized PHB2/REA were recognized”.
